According to patent US10253032B2, “Spiro-lactam NMDA receptor modulators and uses thereof” (Aptinyx Inc., priority 2013, dated 2019):

Experiments:
[1] = molecular target: T1, NMDA receptor glycine site, rat cortical membranes (Rattus norvegicus, UniProt P35439); experiment: [3H] MK-801 binding assay (MK-801 Glycine Site Binding Assay: Rat, Cortex); conditions: potentiation of [3H]MK-801 binding (5 nM), 50 μM glutamate, 15 min @25° C.
T1 construct: well washed rat cortical membranes (200 μg); from tissue; host or cells: rat cerebral cortex membranes
Method: Assays were conducted as described in Moskal et al. (Moskal, J. R., Kuo, A. G., Weiss, C., Wood, P. L., O'Connor Hanson, A., Kelso, S., Harris, R. B., Disterhoft, S. F., 2005. GLYX-13: a monoclonal antibody-derived peptide that acts as an N-methyl-D-aspartate receptor modulator. Neuropharmacology. 49, 1077-87) The potentiation of [^3H]MK-801 binding (5 nM; 22.5 Ci/mmol) to well washed rat cortical membranes (200 μg) was measured under non-equilibrium conditions (15 min @25° C.) in the presence of increasing concentrations of test compounds and 50 μM glutamate. Zero levels were determined in the absence of any glycine ligand and in the presence of 30 μM 5.7 DCKA. Maximal stimulation was measured in the presence of 1 mM glycine, and 50 μM glutamate was present in all samples. The facilitation of [^3H]MK-801 binding by tests compounds was calculated by using a 3 parameter log agonist vs. response equation (Graph pad Prism, USA) and potency (EC50, expressed in pM) and maximal activity (% maximal stimulation) were calculated for the test compound.

LTP = LTP (long-term potentiation) augmentation; conditions: LTP Concentration 1 uM

In the case of `NC(=O)C(CO)N1CCCC12CNC2=O` (centres unmarked) [Compound X], the EC50 [1] is reported as 2.43 nM and the “LTP: LTP Augmentation” value (LTP) is reported as 75%.
